Measurements published in patent publication US10208056B2, “Condensed tricyclic compounds as protein kinase inhibitors” (FUNDACIÓN DEL SECTOR PÚBLICO ESTATAL CENTRO NACIONAL DE …, priority 2015, dated 2019).
Read-outs that look alike come from different tables or passages of the source.

What was measured:
CDK8/Cyclin C = CDK8/Cyclin C (Homo sapiens (Human), UniProt P49336); experiment: CDK8/Cyclin C binding assay (LanthaScreen Eu-Kinase Binding Assay); details: for IC50: binding assay
Description: The enzyme has been purchase from Invitrogen (PV4402) as a dimer of full-length His-tagged recombinant human proteins.
(§1) Assays were performed in 384-well plates. The final read out was generated using an EnVision plate reader (Perkin-Elmer).

Haspin kinase = Haspin kinase (Homo sapiens (Human), UniProt Q8TF76); experiment: Haspin kinase assay (ADP-Glo); type: biochemical; details: ATP 150 μM
Sequence of Haspin kinase (Q8TF76 484-798): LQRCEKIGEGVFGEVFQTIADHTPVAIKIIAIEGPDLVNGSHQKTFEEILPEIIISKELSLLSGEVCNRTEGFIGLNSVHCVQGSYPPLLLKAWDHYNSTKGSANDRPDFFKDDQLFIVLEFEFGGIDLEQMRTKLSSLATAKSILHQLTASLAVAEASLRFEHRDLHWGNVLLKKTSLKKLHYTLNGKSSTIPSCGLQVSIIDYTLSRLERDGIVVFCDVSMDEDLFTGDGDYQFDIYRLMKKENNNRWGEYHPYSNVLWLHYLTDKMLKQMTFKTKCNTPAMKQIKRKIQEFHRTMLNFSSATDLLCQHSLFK
Description: The kinase assay relies on ADP-Glo^KM biochemical kinase assay (Promega). This is a luminescent kinase assay that measures ADP formed from a kinase reaction. Then ADP is converted into ATP, which is transformed into a light signal by Ultra-Glo™ Luciferase. The luminescent signal positively correlates with kinase activity. The assay measures the intrinsic ATPase activity (in the absence of peptidic substrate as phosphate acceptor).
The enzyme was purchase from Invitrogen (PV5708) as the kinase domain of GST tagged recombinant human proteins.
Assay conditions were as indicated by the kit manufacturers with the following adaptations: • Assay buffer: 15 mM HEPES pH 7.4, 20 mM NaCl, 1 mM EGTA, 0.02% Tween 20, 10 mM MgCl2, 0.1 mg/ml BGG • Assay volume: 20 μl • Incubation time and temperature: 60 min at 30° C. • Haspin concentration: 20 nM • ATP concentration: 150 μM • Tested compound: Serial 1:3 dilutions • Final DMSO concentration in the assay: 1%
Assays were performed in 384-well plates. The final read out was generated using an EnVision plate reader (Perkin-Elmer). Luminescent relative units are normalized against the control activity included for each compound (i.e., 100% Haspin activity, without compound) and the percentage of inhibition is calculated.

CDK19/Cyclin C = CDK19/Cyclin C (Homo sapiens (Human), UniProt Q9BWU1); experiment: CDK19/Cyclin C binding assay (LanthaScreen Eu-Kinase Binding Assay); details: read-out: CDK19-CYCC IC50
Sequence of CDK19/Cyclin C (Q9BWU1 whole entry): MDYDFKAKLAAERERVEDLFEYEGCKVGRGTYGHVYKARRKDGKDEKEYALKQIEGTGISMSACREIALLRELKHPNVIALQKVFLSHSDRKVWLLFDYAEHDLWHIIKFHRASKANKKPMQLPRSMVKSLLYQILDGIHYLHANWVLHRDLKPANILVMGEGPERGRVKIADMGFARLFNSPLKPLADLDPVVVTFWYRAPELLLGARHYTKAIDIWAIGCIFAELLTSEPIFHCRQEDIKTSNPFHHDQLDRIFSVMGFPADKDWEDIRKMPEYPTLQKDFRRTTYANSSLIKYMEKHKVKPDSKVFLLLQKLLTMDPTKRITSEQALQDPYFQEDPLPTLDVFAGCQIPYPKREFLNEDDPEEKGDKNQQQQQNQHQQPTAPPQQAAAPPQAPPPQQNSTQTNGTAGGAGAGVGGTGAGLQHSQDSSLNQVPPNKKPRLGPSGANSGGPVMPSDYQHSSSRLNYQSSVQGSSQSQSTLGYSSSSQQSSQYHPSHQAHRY
Sequence of CDK19/Cyclin C (P24863 whole entry partner): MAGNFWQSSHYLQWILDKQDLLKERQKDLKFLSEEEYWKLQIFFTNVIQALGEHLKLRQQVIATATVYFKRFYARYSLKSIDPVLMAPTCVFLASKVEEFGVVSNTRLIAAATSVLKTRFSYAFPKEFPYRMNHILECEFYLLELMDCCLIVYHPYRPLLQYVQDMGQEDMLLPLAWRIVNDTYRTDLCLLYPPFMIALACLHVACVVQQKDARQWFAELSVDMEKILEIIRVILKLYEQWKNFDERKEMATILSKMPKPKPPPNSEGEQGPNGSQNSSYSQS
Description: The binding assay relies on the LanthaScreen™ Eu-Kinase Binding Assay (Invitrogen).
Assay conditions were as indicated by the kit manufacturers with the following adaptations: • Assay buffer: 50 mM HEPES, pH 7.5, 1 mM EGTA, 0.01% Brij-35, 10 mM MgCl2 • Assay volume: 20 μl • Incubation time and temperature: 60 min at 25° C. • Cdk19-Cyclin C concentration: 2 nM • Tracer concentration: 20 nM • (Eu)-labelled anti-GST antibody concentration: 2 nM • Tested compound: Serial 1:3 dilutions • Final DMSO concentration in the assay: 1%
as §1

MV4:11 = experiment: In vitro cell proliferation assay (CellTiter-Glo), MV4:11; type: cell-based
Description: (§2) The in vitro potency of the compounds was measured by the cell proliferation assay CellTiter-Glo® Luminescent Cell Viability Assay, commercially available from Promega Corp., Madison, Wis. This homogeneous assay method is based on the recombinant expression of Coleoptera luciferase (U.S. Pat. No. 5,583,024; U.S. Pat. No. 5,674,713; U.S. Pat. No. 5,700,670) and determines the number of viable cells in culture based on quantitation of the ATP present, an indicator of metabolically active cells (Crouch et al (1993) J. Immunol. Meth. 160:81-88; U.S. Pat. No. 6,602,677). The CellTiterGlo® Assay was conducted […] it amenable to automated high throughput screening (HTS) (Cree et al (1995) AntiCancer Drugs 6:398-404).
(§3) The homogeneous assay procedure involves adding the single reagent (CellTiter-Glo® Reagent) directly to cells cultured in serum-supplemented medium. Cell washing, removal of medium and multiple pipetting steps are not required. The system detects as few as 15 cells/well in a 96-well format in 10 minutes after adding reagent and mixing.
(§4) The homogeneous “add-mix-measure” format results in cell lysis and generation of a luminescent signal proportional to the amount of ATP present. The amount of ATP is directly proportional to the number of cells present in culture. The CellTiter-Glo® Assay generates a “glow-type” luminescent signal, produced by the luciferase reaction, which has a half-life generally greater than five hours, depending on cell type and medium used. Viable cells are reflected in relative luminescence units (RLU). The substrate, Beetle Luciferin, is oxidatively decarboxylated by recombinant firefly luciferase with concomitant conversion of ATP to AMP and generation of photons. The extended half-life eliminates the need to use reagent injectors and provides flexibility for continuous or batch mode processing of multiple plates. This cell proliferation assay can be used with various multiwell formats, e.g. 96 or 384 well format. Data can be recorded by luminometer or CCD camera imaging device. The luminescence output is presented as relative light units (RLU), measured over time.

MDA-MB-231 = experiment: In vitro cell proliferation assay (CellTiter-Glo), MDA-MB-231; type: cell-based
Description: as §2, §3, §4

SW620 [1] = experiment: In vitro cell proliferation assay (CellTiter-Glo), SW620; type: cell-based, human
Description: as §2, §3, §4

Molm13 = experiment: In vitro cell proliferation assay (CellTiter-Glo), Molm13; type: cell-based
Description: as §2, §3, §4

intracellular CDK8 = intracellular CDK8 (Homo sapiens (Human), UniProt P49336); experiment: Endogenous phosphoSTAT1 inhibition in SW620 cells growing in 10% FBS; type: cell-based; details: semiquantitative, read-out: SW620 P-STAT1(S727)
Sequence of intracellular CDK8 (P49336 whole entry): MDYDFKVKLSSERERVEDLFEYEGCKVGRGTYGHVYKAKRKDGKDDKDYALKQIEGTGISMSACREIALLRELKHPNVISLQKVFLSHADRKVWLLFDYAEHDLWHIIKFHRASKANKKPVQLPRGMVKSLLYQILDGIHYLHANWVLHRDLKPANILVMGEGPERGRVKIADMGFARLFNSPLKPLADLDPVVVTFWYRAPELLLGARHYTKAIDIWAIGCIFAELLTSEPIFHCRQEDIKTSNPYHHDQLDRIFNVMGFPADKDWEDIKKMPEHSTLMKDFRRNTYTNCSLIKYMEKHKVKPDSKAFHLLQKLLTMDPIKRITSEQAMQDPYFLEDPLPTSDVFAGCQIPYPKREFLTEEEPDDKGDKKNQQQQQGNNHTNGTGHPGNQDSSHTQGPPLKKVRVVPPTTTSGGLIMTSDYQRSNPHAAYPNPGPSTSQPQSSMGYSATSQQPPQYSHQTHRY
Sequence of intracellular CDK8 (P24863 whole entry partner): as the sequence (P24863 whole entry partner) above
Sequence of intracellular CDK8 (Q93074 whole entry partner): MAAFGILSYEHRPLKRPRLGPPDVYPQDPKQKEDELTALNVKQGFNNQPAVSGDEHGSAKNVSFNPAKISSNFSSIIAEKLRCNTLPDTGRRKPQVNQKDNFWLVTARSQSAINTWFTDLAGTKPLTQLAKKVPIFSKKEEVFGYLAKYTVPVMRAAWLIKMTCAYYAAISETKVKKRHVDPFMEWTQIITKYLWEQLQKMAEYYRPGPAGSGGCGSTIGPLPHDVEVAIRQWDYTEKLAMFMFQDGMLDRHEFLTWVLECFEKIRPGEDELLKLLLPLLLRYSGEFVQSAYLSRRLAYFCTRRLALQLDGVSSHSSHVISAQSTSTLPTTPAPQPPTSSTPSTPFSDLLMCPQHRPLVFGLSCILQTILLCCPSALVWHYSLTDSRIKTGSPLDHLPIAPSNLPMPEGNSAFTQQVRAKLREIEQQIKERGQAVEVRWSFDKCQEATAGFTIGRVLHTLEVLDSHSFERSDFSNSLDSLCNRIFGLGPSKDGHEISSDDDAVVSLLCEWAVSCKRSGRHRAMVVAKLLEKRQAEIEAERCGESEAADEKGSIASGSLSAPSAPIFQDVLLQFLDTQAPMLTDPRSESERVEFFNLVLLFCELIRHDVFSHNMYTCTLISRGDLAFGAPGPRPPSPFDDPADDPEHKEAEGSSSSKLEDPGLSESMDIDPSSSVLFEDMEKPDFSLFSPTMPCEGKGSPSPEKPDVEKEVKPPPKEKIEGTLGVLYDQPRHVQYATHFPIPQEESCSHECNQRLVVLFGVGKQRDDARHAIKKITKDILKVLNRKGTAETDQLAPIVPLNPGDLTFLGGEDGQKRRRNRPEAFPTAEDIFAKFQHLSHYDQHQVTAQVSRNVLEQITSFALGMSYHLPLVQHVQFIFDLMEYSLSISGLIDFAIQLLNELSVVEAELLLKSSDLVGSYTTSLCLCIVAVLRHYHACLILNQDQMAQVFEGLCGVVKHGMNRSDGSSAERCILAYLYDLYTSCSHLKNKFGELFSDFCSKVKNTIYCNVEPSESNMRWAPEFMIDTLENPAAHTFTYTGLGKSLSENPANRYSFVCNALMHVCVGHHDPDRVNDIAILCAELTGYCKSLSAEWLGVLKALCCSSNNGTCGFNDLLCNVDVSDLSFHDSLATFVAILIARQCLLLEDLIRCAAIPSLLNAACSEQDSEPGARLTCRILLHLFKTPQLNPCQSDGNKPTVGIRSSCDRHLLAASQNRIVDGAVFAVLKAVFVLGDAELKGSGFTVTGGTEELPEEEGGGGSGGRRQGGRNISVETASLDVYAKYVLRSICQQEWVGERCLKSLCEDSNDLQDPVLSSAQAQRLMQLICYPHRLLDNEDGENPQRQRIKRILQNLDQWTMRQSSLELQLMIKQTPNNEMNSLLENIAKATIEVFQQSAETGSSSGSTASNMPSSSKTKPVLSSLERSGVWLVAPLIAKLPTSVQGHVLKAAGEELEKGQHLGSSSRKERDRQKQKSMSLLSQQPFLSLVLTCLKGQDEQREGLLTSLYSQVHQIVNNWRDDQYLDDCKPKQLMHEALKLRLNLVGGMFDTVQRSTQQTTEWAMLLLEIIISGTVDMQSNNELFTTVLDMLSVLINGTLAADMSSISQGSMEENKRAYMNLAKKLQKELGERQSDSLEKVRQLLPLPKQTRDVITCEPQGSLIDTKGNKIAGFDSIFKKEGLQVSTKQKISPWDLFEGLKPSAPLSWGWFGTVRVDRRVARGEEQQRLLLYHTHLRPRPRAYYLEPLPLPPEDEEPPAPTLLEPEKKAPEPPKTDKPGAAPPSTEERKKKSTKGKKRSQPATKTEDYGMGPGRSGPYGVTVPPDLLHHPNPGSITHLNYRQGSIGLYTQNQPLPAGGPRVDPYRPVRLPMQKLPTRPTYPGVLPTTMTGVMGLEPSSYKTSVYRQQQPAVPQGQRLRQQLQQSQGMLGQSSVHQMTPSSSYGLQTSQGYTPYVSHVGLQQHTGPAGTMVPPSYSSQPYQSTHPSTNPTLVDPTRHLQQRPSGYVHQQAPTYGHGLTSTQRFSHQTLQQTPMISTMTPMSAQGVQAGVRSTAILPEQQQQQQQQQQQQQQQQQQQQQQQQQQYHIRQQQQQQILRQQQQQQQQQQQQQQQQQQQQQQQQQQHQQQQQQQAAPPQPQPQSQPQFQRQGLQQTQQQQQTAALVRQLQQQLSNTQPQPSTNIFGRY
Description: Endogenous phosphoSTAT1 inhibition can be screened in cells growing in 10% FBS. Cells are plated as described before and treated for 8 h with compounds as described before. Then cells are lysated and phospho STAT1 is evaluated as described before. The percentage of phosphorylated STAT1 vs total STAT1 in cells treated with DMSO is taken as hundred percent of phosphorylation. The percentage of STAT1 phosphorylation is finally plotted against concentration for each compound and EC50s for intracellular CDK8 inhibition are calculated using ActivityBase from IDBS.

SW620 [2] = experiment: Combination assay, SW620; type: cell-based, human; details: SW620, chemotherapeutic alone, read-out: Chemo GI50
Description: The combination index (CI) of combinations of certain example compounds and various chemotherapeutic agents in the CellTitetI-Glo® in vitro cell proliferation assays may be tested. A combination index score is calculated by the Chou and Talalay method (CalcuSyn software, Biosoft). The strength of synergy is scored using the ranking system Chou and Talalay: CI less than 0.8 indicates synergy, CI between 0.8 and 1.2 indicates additivity and CI greater than 1.2 indicates antagonism.
The EC50 values of representative combinations are also calculated. The individually measured EC50 values of the chemotherapeutic agent and the example compounds are compared to the EC50 value of the combination. The cell lines are characterised by tumor type. Combination assays are performed as described in: “Pim 1 kinase inhibitor ETP-45299 suppresses cellular proliferation and synergizes with PI3K inhibition”. Blanco-Aparicio, Carmen; Collazo, Ana Maria Garcia; Oyarzabal, Julen; Leal, Juan F.; Albaran, Maria Isabel; Lima, Francisco Ramos; Pequeno, Belen; Ajenjo, Nuria; Becerra, Mercedes; Alfonso, Patricia; Reymundo, Maria Isabel; Palacios, Irene; Mateos, Genoveva; Quinones, Helena; Corrionero, Ana; Carnero, Amancio; Pevarello, Paolo; Lopez, Ana Rodriguez; Fominaya, Jesus; Pastor, Joaquin; Bischoff, James R. Cancer Letters (Shannon, Ireland) 2011, 300(2), 145-153

[3] = Homo sapiens, MV4-11, growth inhibition, semiquantitative, read-out: GI50 MV4:11
[4] = Homo sapiens, MDA-MB-231, growth inhibition, semiquantitative, read-out: GI50 MDA-MB-231
[5] = Homo sapiens, SW-620, growth inhibition, semiquantitative, read-out: GI50 SW620
[6] = Homo sapiens, MOLM-13, growth inhibition, semiquantitative, read-out: GI50 Molm13

Sequence of CDK8/Cyclin C (P49336 whole entry): as the sequence (P49336 whole entry) above
Sequence of CDK8/Cyclin C (P24863 whole entry partner): as the sequence (P24863 whole entry partner) above

SMILES | IC50 (CDK8/Cyclin C) [nM] | IC50 (Haspin kinase) [nM] | IC50 (CDK19/Cyclin C) [nM] | GI50 (MV4:11; [3]) [nM] | GI50 (MDA-MB-231; [4]) [nM] | GI50 (SW620 [1]; [5]) [nM] | GI50 (Molm13; [6]) [nM] | also measured
CCn1c(C(N)=O)cc2c1-c1ccncc1O[C@H]2C1CCCCC1 (single isomer, unassigned) [Example 89] | 0.407 | 95.2 | 1.41 | – | – | – | – | GI50 (MV4:11; growth inhibition, semiquantitative, read-out: GI50 MV4:11): < 1000 nM; GI50 (MDA-MB-231; growth inhibition, semiquantitative, read-out: GI50 MDA-MB-231): 10000 to 100000 nM; GI50 (SW620 [1]; growth inhibition, semiquantitative, read-out: GI50 SW620): 10000 to 100000 nM; GI50 (Molm13; growth inhibition, semiquantitative, read-out: GI50 Molm13): < 1000 nM
CCn1c(C(N)=O)cc2c1-c1ccncc1OC21CCCCC1 [Example 80] | 0.314 | – | 0.77 | < 1000 | 1000 to 10000 | 1000 to 10000 | < 1000 | EC50 (intracellular CDK8): < 500 nM
Cn1c(C(N)=O)cc2c1-c1ccncc1OC21CCCCC1 [Example 83] | 0.278 | 9.8 | 1.41 | < 1000 | 1000 to 10000 | 1000 to 10000 | < 1000 | EC50 (intracellular CDK8): < 500 nM
Cn1c(C(N)=O)cc2c1-c1ccncc1OC2(C)C [Example 22] | 1.98 | 87.4 | 1.41 | – | – | – | – | GI50 (MV4:11; Homo sapiens, MV4-11, read-out: GI50 MV4:11): < 1000 nM; GI50 (MDA-MB-231; Homo sapiens, MDA-MB-231, read-out: GI50 MDA-MB-231): 1000 to 10000 nM; GI50 (SW620 [1]; Homo sapiens, SW-620, read-out: GI50 SW620): 10000 to 100000 nM; GI50 (Molm13; Homo sapiens, MOLM-13, read-out: GI50 Molm13): 1000 to 10000 nM
COCCn1c(C(N)=O)cc2c1-c1ccncc1OC21CCOCC1 [Example 87] | 14.2 | 136 | 20.9 | 1000 to 10000 | 10000 to 100000 | 10000 to 100000 | 10000 to 100000 | –
CCn1c(C(N)=O)c(-c2cccc(OC)c2)c2c1-c1ccncc1OC2(C)C [Example 88] | 13.9 | 106 | – | < 1000 | 10000 to 100000 | 10000 to 100000 | 1000 to 10000 | –
COc1ccc(S(=O)(=O)Nc2cccnc2Nc2ccc(O)cc2)cc1 [ABT-751, reference compound] | – | – | – | – | – | – | – | GI50 (SW620 [2]; Homo sapiens, SW-620): 500 nM
Cn1c(C(N)=O)cc2c1-c1ccncc1OC21CCOCC1 [Example 81] | 3.83 | 138 | 6.1 | < 1000 | 1000 to 10000 | 1000 to 10000 | < 1000 | –
NC(=O)c1cc2c(n1CCF)-c1ccncc1OC21CCC1 [Example 76] | 0.262 | 24.2 | 0.827 | < 1000 | 1000 to 10000 | 1000 to 10000 | < 1000 | EC50 (intracellular CDK8): < 500 nM
NC(=O)c1cc2c([nH]1)-c1ccncc1OC2C1CCCCC1 (stereo not shown) [Example 57] | 1.41 | – | 47.3 | – | – | < 1000 | – | –
CC1(C)Oc2cnccc2-c2[nH]c(C(N)=O)c(C3CC3)c21 [Example 86] | 4.33 | 34.5 | 0.48 | < 1000 | 1000 to 10000 | 1000 to 10000 | 1000 to 10000 | EC50 (intracellular CDK8): < 500 nM
CC1(C)Oc2cncc(Cl)c2-c2[nH]c(C(N)=O)cc21 [Example 34] | 2.1 | 31.8 | 1.41 | < 1000 | – | – | – | –
CNC(=O)c1cc2c([nH]1)-c1ccncc1OC2(C)C [Example 3] | 92.2 | 180 | 322 | – | – | – | – | –
CCn1c(C(N)=O)c(-c2ccccc2C(F)(F)F)c2c1-c1ccncc1OC2(C)C [Example 75] | 14.4 | 233 | 16.7 | – | – | – | – | –
O=C1[O][Pt]2([NH][C@@H]3CCCC[C@H]3[NH]2)[O]C1=O [Oxaliplatin, oxaliplatin, reference compound] | – | – | – | – | – | – | – | GI50 (SW620 [2]): 5000 nM
CC1(C)Oc2cnccc2-c2[nH]c(C(N)=O)cc21 [Example 1] | 2.59 | 38.1 | 11.9 | 1000 to 10000 | 10000 to 100000 | – | – | –
NC(=O)c1cc2c([nH]1)-c1ccncc1OC21CCN(CCc2ccccc2)CC1 [Example 46] | 445 | 81.3 | 585 | < 1000 | 1000 to 10000 | 1000 to 10000 | < 1000 | –
CC1(C)Oc2cnccc2-c2[nH]c(C(=O)O)c(Br)c21 [Example 29] | 52.5 | 89.3 | 205 | – | – | – | – | –
COc1ccccc1-c1c(C(N)=O)[nH]c2c1C(C)(C)Oc1cnccc1-2 [Example 63] | 55.4 | 3960 | 229 | – | – | – | – | –
CC1(C)Oc2cnccc2-c2[nH]c(C(N)=O)c(-c3ccccc3)c21 [Example 31] | 29.7 | 73.2 | 107 | – | – | – | – | –
CC1(C)Oc2cnccc2-c2[nH]c(C(=O)O)c(-c3ccc(S(N)(=O)=O)cc3)c21 [Example 30] | 8.94 | 2740 | 20.7 | – | – | – | – | CDK8 selectivity (CDK8/Cyclin C): high CDK8 selectivity
NC(=O)c1cc2c([nH]1)-c1ccncc1OC21CCN(CC(F)(F)F)CC1 [Example 18] | 20.2 | 344 | 40.5 | 1000 to 10000 | 10000 to 100000 | 10000 to 100000 | 1000 to 10000 | –
